In patent US20220152188A1, “TLR4-TLR7 LIGAND FORMULATIONS AS VACCINE ADJUVANTS” (The Regents of the University of California, priority 2019, published 2022):
Entries after “also recorded” stand apart in the source; their conditions may differ.

Experiments:
[1] = tested on: inactivated Influenza A virus [A/California/04/2009 (H1N1) pdm09]; assay: Antigen-specific antibody production in mice immunized with IIAV plus adjuvant (ELISA); format: in vivo, BALB/c mice; conditions: for total IgG levels: liposomal formulation
influenza virus = assay: Immunization with low dose recombinant hemagglutinin (rHA) and lethal virus challenge; format: in vivo, mice; conditions: rHA 0.2 μg/injection
Description: To assess profile of protective immune responses against influenza virus infection induced by TLR4/TLR7 agonist-combined adjuvant, mice were immunized with low dose (0.2 μg/injection) recombinant hemagglutinin (rHA) and humoral responses and protection against lethal virus challenge (FIGS. 34A-2D).

[2] = tested on: THP-1 cells and human primary cells; assay: In vitro immunoactivity / agonistic potency in human cells; format: cell-based; conditions: THP-1 and human primary cells
murine primary cells = assay: In vitro immunoactivity / agonistic potency in murine cells; format: cell-based, mouse
IGH genes, TCRα and TCRβ = assay: NGS assay for BCR and TCR repertoire of inguinal lymph nodes; format: in vivo, BALB/c mice; conditions: day 28
ovalbumin = assay: In vivo vaccination study with model antigen ovalbumin; conditions: ovalbumin as antigen
mouse TLR4 = mouse TLR4 (Mus musculus, UniProt Q9JHF9+Q9QUK6); format: cell-based
TLR4 = TLR4 (Homo sapiens, UniProt O00206+Q9Y6Y9); format: cell-based
[3] = single adjuvant, DMSO formulation, sera day 28
[4] = TLR4 agonist combined with 1V270, DMSO-water formulation, sera day 28
[5] = single adjuvant, DMSO formulation, i.m. days 0 and 21, sera day 28

TLR4, sequence (O00206 24-839): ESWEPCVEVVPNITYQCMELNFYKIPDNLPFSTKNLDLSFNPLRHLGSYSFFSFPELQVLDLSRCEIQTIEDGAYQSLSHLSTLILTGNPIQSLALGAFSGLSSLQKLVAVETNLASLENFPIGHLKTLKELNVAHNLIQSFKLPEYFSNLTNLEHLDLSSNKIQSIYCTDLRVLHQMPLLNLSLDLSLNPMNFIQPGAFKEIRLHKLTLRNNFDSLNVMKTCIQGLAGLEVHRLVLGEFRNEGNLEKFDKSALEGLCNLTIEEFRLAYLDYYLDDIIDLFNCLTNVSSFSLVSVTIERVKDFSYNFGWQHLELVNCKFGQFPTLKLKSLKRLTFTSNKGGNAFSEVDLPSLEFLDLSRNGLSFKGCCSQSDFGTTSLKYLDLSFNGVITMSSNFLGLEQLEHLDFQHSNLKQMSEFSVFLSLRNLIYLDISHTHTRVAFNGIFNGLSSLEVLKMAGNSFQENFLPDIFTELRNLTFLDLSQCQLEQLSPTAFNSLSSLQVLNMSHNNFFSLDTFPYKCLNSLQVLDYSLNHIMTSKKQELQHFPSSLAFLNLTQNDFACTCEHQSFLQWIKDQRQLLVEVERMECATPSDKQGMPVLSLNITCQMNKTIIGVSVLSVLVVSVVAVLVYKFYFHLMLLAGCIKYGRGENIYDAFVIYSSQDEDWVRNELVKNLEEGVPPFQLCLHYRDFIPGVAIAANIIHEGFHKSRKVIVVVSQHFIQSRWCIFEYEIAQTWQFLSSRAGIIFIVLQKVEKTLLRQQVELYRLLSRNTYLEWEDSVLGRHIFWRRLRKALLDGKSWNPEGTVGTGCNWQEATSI
TLR4, sequence (Q9Y6Y9 17-160): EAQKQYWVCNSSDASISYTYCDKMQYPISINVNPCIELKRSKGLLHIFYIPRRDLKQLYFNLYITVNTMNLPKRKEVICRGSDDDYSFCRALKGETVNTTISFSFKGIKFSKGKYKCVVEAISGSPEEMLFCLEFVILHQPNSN
mouse TLR4, sequence (Q9QUK6 26-835): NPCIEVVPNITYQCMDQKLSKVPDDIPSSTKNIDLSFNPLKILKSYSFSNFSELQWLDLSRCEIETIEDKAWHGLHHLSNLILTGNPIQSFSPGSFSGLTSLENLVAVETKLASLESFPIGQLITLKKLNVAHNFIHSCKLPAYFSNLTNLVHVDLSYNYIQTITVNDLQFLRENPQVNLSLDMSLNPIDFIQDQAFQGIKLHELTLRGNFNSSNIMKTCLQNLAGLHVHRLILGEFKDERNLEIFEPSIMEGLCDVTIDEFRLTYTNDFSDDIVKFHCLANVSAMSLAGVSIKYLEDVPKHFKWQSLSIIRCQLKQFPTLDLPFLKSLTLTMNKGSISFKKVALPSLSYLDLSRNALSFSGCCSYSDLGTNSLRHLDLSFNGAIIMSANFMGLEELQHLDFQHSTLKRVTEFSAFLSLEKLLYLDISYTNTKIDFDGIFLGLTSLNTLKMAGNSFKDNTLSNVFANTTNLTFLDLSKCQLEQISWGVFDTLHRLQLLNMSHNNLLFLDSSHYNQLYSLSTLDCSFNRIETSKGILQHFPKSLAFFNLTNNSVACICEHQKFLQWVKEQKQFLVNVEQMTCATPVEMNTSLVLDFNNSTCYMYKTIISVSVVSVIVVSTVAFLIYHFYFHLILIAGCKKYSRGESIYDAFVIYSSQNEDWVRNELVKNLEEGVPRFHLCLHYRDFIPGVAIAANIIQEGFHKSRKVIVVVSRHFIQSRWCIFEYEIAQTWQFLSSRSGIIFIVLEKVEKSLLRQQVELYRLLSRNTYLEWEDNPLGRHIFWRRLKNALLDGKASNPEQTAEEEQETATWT
mouse TLR4, sequence (Q9JHF9 19-160): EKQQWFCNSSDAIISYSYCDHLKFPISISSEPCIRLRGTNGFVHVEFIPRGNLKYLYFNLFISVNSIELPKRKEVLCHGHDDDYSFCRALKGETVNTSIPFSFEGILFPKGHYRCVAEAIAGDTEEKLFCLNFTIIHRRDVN

With CCCCCCCCC=CCCCCCCCC(=O)OCC(COP(=O)(O)OCCNC(=O)c1ccc(Cn2c(=O)[nH]c3c(N)nc(OCCOC)nc32)cc1)OC(=O)CCCCCCCC=CCCCCCCCC (centres unmarked) [Compound 1V270] the “IgG2a:IgG1 ratio (Th1/Th2 immune balance)” value ([1]; DMSO-water formulation, individual animals) was “significantly shifted the Th2-biased immune responses by 1Z105 or 2B182C”, the “total IgG levels” value ([1]; sera day 28) was “comparable” and the “anti-HA IgG2a” value [1, 3] was “significantly increased anti-HA; also recorded: induced only anti-HA IgG2a production”. For the same compound, the “Th1/Th2 bias of immune response” value (influenza virus) was “induced Th1 biased immune responses”.

In the case of Cn1c2ccccc2c2nc(SCC(=O)NC3CCCCC3)n(-c3ccccc3)c(=O)c21 [Compound 1Z105], the “anti-HA and anti-NA IgG2a” value [1, 4] is reported as “failed in most cases; also recorded: failed to enhance IgG2a production induced by 1V270”, the “anti-HA and anti-NA IgG1” value [1, 5] is reported as “significantly higher levels of IgG1 against HA and NA” and the “immunoactivity / agonistic potency in human cells” value [2] is reported as “devoid of significant activity in human cells”. For the same compound, the “immunoactivity / agonistic potency in murine cells” value (murine primary cells) was “good immunoactivity in murine cells”.

With Cn1c2ccc(-c3ccco3)cc2c2nc(SCC(=O)NC3CCCCC3)n(-c3ccccc3)c(=O)c21 [Compound 2B182C] the “anti-HA and anti-NA IgG1” value [1, 4] was “significantly higher IgG1 compared to 1Z105”, the “anti-HA and anti-NA IgG2a” value [1, 4] was “increased the levels of anti HA- and anti NA-Abs” and the “total IgG levels” value ([1]; sera day 28) was “comparable”. The “anti-HA and anti-NA IgG1” value [1, 5] was “significantly higher levels of IgG1 against HA and NA; also recorded: significantly increased IgG1 antibody against both HA and NA”, the “anti-HA and anti-NA IgG1” value ([1]; single adjuvant, DMSO formulation, i.m. days 0 and 21, sera day 28, listed as 2B182c) was “higher level of antigen specific IgG1” and the “anti-NA IgG2a” value [1, 3] was “enhanced anti-NA Abs; also recorded: enhanced anti-NA specific IgG2a”. The “antigen specific IgM” value [1, 3] was “only slightly increased”, the “anti-NA IgG2a” value ([1]; single adjuvant, DMSO formulation, sera day 28, listed as 2B182c) was “higher level of antigen specific IgG1 and anti-NA IgG2a” and the “TCR clonality (TCRα and TCRβ)” value (IGH genes, TCRα and TCRβ) was “increased”. For the same compound, the “immunoactivity / agonistic potency in human cells” value [2] was “higher agonistic potency than 1Z105”, the “serum IgG1 levels” value (ovalbumin) was “induced higher serum IgG1 levels” and the “antigen-specific IgG2a” value (ovalbumin; with 1V270) was “additively enhance the release of antigen-specific IgG2a induced by 1V270”. The “EC50 in murine TLR4 reporter cells in comparison with EC50 of 1Z105” value (mouse TLR4) was 5.8 fold, the “immunoactivity / agonistic potency in murine cells” value (murine primary cells) was “higher agonistic potency than 1Z105” and the “EC50 in human TLR4 reporter cells in comparison with EC50 of 1Z105” value (TLR4) was 870 fold.
